# Tests used:
# SK-MEL-2 [1] = experiment: Growth inhibition of human SK-MEL-2 cells assessed as growth percentage at 100 uM incubated for 48 hrs by sulforhodamine B assay relative to control; type: functional; details: read-out: Activity
# ACHN [2] = experiment: Growth inhibition of human ACHN cells assessed as growth percentage at 0.01 uM incubated for 48 hrs by sulforhodamine B assay relative to control; type: functional; details: read-out: Activity
# OVCAR-5 [3] = experiment: Growth inhibition of human OVCAR-5 cells assessed as growth percentage at 10 uM incubated for 48 hrs by sulforhodamine B assay relative to control; type: functional; details: read-out: Activity
# SK-MEL-28 [4] = experiment: Growth inhibition of human SK-MEL-28 cells assessed as growth percentage at 100 uM incubated for 48 hrs by sulforhodamine B assay relative to control; type: functional; details: read-out: Activity
# SK-MEL-28 [5] = experiment: Growth inhibition of human SK-MEL-28 cells assessed as growth percentage at 0.1 uM incubated for 48 hrs by sulforhodamine B assay relative to control; type: functional; details: read-out: Activity
# SK-MEL-28 [6] = experiment: Growth inhibition of human SK-MEL-28 cells assessed as growth percentage at 1 uM incubated for 48 hrs by sulforhodamine B assay relative to control; type: functional; details: read-out: Activity
# SF-539 [7] = experiment: Growth inhibition of human SF-539 cells assessed as growth percentage at 1 uM incubated for 48 hrs by sulforhodamine B assay relative to control; type: functional; details: read-out: Activity
# SK-MEL-2 [8] = experiment: Growth inhibition of human SK-MEL-2 cells assessed as growth percentage at 0.1 uM incubated for 48 hrs by sulforhodamine B assay relative to control; type: functional; details: read-out: Activity
# ACHN [9] = experiment: Growth inhibition of human ACHN cells assessed as growth percentage at 0.1 uM incubated for 48 hrs by sulforhodamine B assay relative to control; type: functional; details: read-out: Activity
# SK-MEL-2 [10] = experiment: Growth inhibition of human SK-MEL-2 cells assessed as growth percentage at 0.01 uM incubated for 48 hrs by sulforhodamine B assay relative to control; type: functional; details: read-out: Activity
# SF-539 [11] = experiment: Growth inhibition of human SF-539 cells assessed as growth percentage at 100 uM incubated for 48 hrs by sulforhodamine B assay relative to control; type: functional; details: read-out: Activity
# ACHN [12] = experiment: Growth inhibition of human ACHN cells assessed as growth percentage at 1 uM incubated for 48 hrs by sulforhodamine B assay relative to control; type: functional; details: read-out: Activity
# OVCAR-5 [13] = experiment: Growth inhibition of human OVCAR-5 cells assessed as growth percentage at 1 uM incubated for 48 hrs by sulforhodamine B assay relative to control; type: functional; details: read-out: Activity
# SK-MEL-28 [14] = experiment: Growth inhibition of human SK-MEL-28 cells assessed as growth percentage at 0.01 uM incubated for 48 hrs by sulforhodamine B assay relative to control; type: functional; details: read-out: Activity
# ACHN [15] = experiment: Growth inhibition of human ACHN cells incubated for 48 hrs by sulforhodamine B assay; type: functional
# SF-539 [16] = experiment: Growth inhibition of human SF-539 cells assessed as growth percentage at 0.01 uM incubated for 48 hrs by sulforhodamine B assay relative to control; type: functional; details: read-out: Activity
# SF-539 [17] = experiment: Growth inhibition of human SF-539 cells assessed as growth percentage at 0.1 uM incubated for 48 hrs by sulforhodamine B assay relative to control; type: functional; details: read-out: Activity
# SK-MEL-2 [18] = experiment: Growth inhibition of human SK-MEL-2 cells assessed as growth percentage at 1 uM incubated for 48 hrs by sulforhodamine B assay relative to control; type: functional; details: read-out: Activity
# OVCAR-5 [19] = experiment: Growth inhibition of human OVCAR-5 cells assessed as growth percentage at 100 uM incubated for 48 hrs by sulforhodamine B assay relative to control; type: functional; details: read-out: Activity
# HL-60(TB) [20] = experiment: Growth inhibition of human HL-60(TB) cells assessed as growth percentage at 100 uM incubated for 48 hrs by sulforhodamine B assay relative to control; type: functional; details: read-out: Activity
# HL-60(TB) [21] = experiment: Growth inhibition of human HL-60(TB) cells incubated for 48 hrs by sulforhodamine B assay; type: functional
# [22] = AUClast in Sprague-Dawley rat at 10 mg/kg, iv measured up to 24 hrs by LC-MS/MS analysis; type: ADME, organism-based; design: route intravenous, dose 10 mg/kg, time <=24; details: in vivo
# A498 = experiment: Growth inhibition of human A498 cells incubated for 48 hrs by sulforhodamine B assay; type: functional
# [23] = AUClast in Sprague-Dawley rat at 10 mg/kg, po measured up to 24 hrs by LC-MS/MS analysis; type: ADME, organism-based; design: route oral, dose 10 mg/kg, time <=24; details: in vivo
# [24] = Tmax in Sprague-Dawley rat at 10 mg/kg, po measured up to 24 hrs by LC-MS/MS analysis; type: ADME, organism-based; details: in vivo
# [25] = AUC (0 to infinity) in Sprague-Dawley rat at 10 mg/kg, po measured up to 24 hrs by LC-MS/MS analysis; type: ADME, organism-based; design: route oral, dose 10 mg/kg, time <=24; details: in vivo
# [26] = target: Macrophage colony-stimulating factor 1 receptor (Homo sapiens) (UniProt P07333); experiment: Inhibition of human FMS at 10 uM using myelin basic protein as substrate incubated for 40 mins in presence of [gamma33P]ATP by scintillation counting method relative to control
# Sequence of Macrophage colony-stimulating factor 1 receptor (Homo sapiens) (P07333 whole entry): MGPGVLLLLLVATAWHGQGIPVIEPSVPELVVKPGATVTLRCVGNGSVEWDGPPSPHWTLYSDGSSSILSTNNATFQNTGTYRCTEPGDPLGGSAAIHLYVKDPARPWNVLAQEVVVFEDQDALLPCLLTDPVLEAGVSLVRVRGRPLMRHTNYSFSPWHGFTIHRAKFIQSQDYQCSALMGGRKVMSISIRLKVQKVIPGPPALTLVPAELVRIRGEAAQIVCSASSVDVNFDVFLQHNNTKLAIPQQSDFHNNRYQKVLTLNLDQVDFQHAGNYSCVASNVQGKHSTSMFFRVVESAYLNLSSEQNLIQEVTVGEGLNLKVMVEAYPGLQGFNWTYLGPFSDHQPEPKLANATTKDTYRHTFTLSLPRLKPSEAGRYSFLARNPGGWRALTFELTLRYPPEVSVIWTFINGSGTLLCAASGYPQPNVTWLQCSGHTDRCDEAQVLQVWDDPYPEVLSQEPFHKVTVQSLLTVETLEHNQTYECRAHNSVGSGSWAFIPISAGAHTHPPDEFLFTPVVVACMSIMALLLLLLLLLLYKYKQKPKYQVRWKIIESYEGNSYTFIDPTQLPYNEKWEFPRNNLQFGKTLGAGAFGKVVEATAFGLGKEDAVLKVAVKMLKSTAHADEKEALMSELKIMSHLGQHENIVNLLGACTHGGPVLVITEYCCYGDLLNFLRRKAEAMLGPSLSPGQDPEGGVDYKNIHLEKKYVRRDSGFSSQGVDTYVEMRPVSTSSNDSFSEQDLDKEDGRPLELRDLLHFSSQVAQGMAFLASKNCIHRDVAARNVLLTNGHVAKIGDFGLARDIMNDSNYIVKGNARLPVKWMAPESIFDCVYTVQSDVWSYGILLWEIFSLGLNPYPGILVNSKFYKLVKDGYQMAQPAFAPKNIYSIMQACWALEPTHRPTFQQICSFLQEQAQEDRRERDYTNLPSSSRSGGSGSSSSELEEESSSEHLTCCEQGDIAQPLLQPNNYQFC
# [27] = target: Insulin-like growth factor 1 receptor (Homo sapiens) (UniProt P08069); experiment: Inhibition of human IGF1R at 10 uM using myelin basic protein as substrate incubated for 40 mins in presence of [gamma33P]ATP by scintillation counting method relative to control
# Sequence of Insulin-like growth factor 1 receptor (Homo sapiens) (P08069 31-736 limits assumed): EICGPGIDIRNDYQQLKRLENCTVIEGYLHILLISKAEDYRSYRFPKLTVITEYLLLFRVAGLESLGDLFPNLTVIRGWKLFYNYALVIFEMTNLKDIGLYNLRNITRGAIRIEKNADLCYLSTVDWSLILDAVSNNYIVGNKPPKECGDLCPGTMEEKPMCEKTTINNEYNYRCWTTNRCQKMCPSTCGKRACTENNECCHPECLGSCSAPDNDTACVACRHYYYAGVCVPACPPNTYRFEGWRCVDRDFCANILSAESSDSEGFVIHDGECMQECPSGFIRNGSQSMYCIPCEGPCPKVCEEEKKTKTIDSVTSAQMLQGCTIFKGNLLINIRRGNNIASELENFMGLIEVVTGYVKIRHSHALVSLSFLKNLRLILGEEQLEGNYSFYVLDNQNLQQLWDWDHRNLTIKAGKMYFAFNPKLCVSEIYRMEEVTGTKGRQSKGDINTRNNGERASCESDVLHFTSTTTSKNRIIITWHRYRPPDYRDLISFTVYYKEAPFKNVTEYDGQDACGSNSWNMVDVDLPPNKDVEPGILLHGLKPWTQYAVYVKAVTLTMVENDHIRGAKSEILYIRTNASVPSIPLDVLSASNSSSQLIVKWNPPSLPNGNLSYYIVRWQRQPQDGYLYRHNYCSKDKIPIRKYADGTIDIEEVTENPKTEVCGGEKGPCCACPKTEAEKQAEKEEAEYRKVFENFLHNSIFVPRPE
# Sequence of Insulin-like growth factor 1 receptor (Homo sapiens) (P08069 741-1367 limits assumed): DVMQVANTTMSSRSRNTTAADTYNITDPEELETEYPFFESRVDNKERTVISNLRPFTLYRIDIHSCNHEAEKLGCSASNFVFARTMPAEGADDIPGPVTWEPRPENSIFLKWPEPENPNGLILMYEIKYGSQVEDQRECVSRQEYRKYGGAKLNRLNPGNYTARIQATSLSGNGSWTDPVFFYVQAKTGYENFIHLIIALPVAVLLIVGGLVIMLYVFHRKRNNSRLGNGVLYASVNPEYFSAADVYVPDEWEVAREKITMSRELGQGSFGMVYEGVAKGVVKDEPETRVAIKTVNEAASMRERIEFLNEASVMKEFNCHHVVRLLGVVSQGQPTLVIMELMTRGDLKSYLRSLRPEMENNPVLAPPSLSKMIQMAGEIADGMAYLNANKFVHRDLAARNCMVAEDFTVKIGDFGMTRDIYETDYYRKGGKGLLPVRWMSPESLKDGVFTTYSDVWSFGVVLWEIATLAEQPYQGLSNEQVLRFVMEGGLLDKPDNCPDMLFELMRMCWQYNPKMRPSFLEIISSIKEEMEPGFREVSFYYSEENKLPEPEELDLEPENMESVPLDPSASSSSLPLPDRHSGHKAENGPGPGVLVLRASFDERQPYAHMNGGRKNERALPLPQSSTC
# [28] = target: Tyrosine-protein kinase Lyn (Homo sapiens) (UniProt P07948); experiment: Inhibition of human LYN at 10 uM using myelin basic protein as substrate incubated for 40 mins in presence of [gamma33P]ATP by scintillation counting method relative to control
# Sequence of Tyrosine-protein kinase Lyn (Homo sapiens) (P07948 2-512 limits assumed): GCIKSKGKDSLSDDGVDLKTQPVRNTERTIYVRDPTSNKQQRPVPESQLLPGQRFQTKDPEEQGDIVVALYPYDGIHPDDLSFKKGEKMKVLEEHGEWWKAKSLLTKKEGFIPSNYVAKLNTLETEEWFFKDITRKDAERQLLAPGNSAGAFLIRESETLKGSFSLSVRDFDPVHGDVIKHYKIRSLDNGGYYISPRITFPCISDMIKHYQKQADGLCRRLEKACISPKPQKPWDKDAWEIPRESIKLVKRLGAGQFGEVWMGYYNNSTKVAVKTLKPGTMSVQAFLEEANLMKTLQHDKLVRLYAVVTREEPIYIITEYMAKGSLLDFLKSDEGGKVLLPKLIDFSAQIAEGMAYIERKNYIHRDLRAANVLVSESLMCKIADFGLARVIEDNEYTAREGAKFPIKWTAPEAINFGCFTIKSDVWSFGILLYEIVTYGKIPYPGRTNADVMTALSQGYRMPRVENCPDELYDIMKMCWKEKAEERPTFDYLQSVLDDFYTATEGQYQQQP
# HL-60(TB) [29] = experiment: Growth inhibition of human HL-60(TB) cells assessed as growth percentage at 1 uM incubated for 48 hrs by sulforhodamine B assay relative to control; type: functional; details: read-out: Activity
# [30] = Oral bioavailability in Sprague-Dawley rat at 10 mg/kg measured up to 24 hrs by LC-MS/MS analysis; type: ADME, organism-based; details: in vivo
# [31] = Cmax in Sprague-Dawley rat at 10 mg/kg, po measured up to 24 hrs by LC-MS/MS analysis; type: ADME, organism-based; design: route oral, dose 10 mg/kg, time <=24; details: in vivo
# HL-60(TB) [32] = experiment: Growth inhibition of human HL-60(TB) cells assessed as growth percentage at 0.1 uM incubated for 48 hrs by sulforhodamine B assay relative to control; type: functional; details: read-out: Activity
# [33] = Terminal half life in Sprague-Dawley rat at 10 mg/kg, iv measured up to 24 hrs by LC-MS/MS analysis; type: ADME, organism-based; details: in vivo, read-out: beta t1/2
structure (smiles),measurement,setting,value
Nc1nc2[nH]c(CN3CCN(c4cc(Cl)cc(Cl)c4)CC3)c(CN3CCN(c4cc(Cl)cc(Cl)c4)CC3)c2c(=O)[nH]1,growth at 100 µM,SK-MEL-2 [1],-48%
same,growth at 0.01 µM,ACHN [2],94%
same,growth at 10 µM,OVCAR-5 [3],92.2%
same,growth at 100 µM,SK-MEL-28 [4],-42%
same,growth at 0.1 µM,SK-MEL-28 [5],98%
same,growth at 1 µM,SK-MEL-28 [6],91%
same,growth at 1 µM,SF-539 [7],93%
same,growth at 0.1 µM,SK-MEL-2 [8],115%
same,growth at 0.1 µM,ACHN [9],98%
same,growth at 0.01 µM,SK-MEL-2 [10],109%
same,growth at 100 µM,SF-539 [11],-55%
same,growth at 1 µM,ACHN [12],98%
same,growth at 1 µM,OVCAR-5 [13],89%
same,growth at 0.01 µM,SK-MEL-28 [14],94%
same,GI50,ACHN [15],1940 nM
same,TGI,ACHN [15],3900 nM
same,growth at 0.01 µM,SF-539 [16],89%
same,growth at 0.1 µM,SF-539 [17],94%
same,growth at 1 µM,SK-MEL-2 [18],114%
same,growth at 100 µM,OVCAR-5 [19],-35%
CCCCCCCC(=O)Nc1nc2[nH]c(CN3CCN(Cc4cccc(F)c4)CC3)c(CN3CCN(Cc4cccc(F)c4)CC3)c2c(=O)[nH]1,growth at 100 µM,HL-60(TB) [20],-45%
same,GI50,HL-60(TB) [21],1740 nM
same,TGI,HL-60(TB) [21],3750 nM
same,AUC(0-t) at 24 h,[22],317 ng·h/mL
same,GI50,A498; A498,1250 nM
same,TGI,A498; A498,2530 nM
same,CC50,"A498; A498, 48 h, read-out: LC50 (the source's name)",5100 nM
same,AUC(0-t) at 24 h,[23],56.7 ng·h/mL
same,Tmax,[24],2.25 h
same,AUC(0-inf),[25],61.7 ng·h/mL
same,inhibition,[26],70.3%
same,inhibition,[27],70.3%
same,inhibition,[28],70.3%
same,growth at 1 µM,HL-60(TB) [29],96%
same,bioavailability,[30],12.3%
same,Cmax,[31],10 ng/mL
same,growth at 0.1 µM,HL-60(TB) [32],99%
same,half-life,[33],11.7 h
